Results on 19 compounds are retold here after patent US20240190871A1, “KRASG12D INHIBITOR, PREPARATION METHOD THEREFOR AND APPLICATION THEREOF” (YA THERAPEUTICS INC, priority 2021, published 2024).

Each structure is given as a SMILES string. Some results are limits rather than exact numbers.

In assay [1] the target is KRAS-G2D/SOS1 (Homo sapiens, UniProt P01116, G12D). Nature of the assay: KRAS-G2D/SOS1 binding experiment (HTRF). The conditions noted are these: His-tagged G12D protein and Tag1-SOS protein, room temperature. As to the method:
• A) Dilute Tagged-His Tag G12D protein and Tag1-SOS protein with diluent at 1:100, and use detection buffer for anti-Tag1-Tb3+ antibody and anti-Tag2-XL665 at 1:100 or 1:25, respectively Dilute. • B) Dilute the compound to be tested with diluent starting from […] concentration, 4 times gradient, a total of 6 concentration gradients, and dilute to 10× stock solution. • C) In a 96-well plate, add 4 uL Tagged-His Tag G12D protein, 4 uL Tag1-SOS protein, 2 ul dilution solution (positive control) or test compound (different concentrations of 10× stock solution) to each well in sequence, a total of 10 ul, and incubate at room temperature for […], add pre-mixed 5 uL anti-Tag1-Tb3+ and 5 uL anti-Tag2-xL665, seal the plate, incubate at room temperature for 2 hours, and read the HTRF signal with a TECAN INFINITEF NANO+ microplate reader.
The ratio of […] and donor excitation signals for each single well was calculated using the formula ratio=665 nm signal value/620 nm signal value×[…]. Data were processed using Graphpadprism5 software. IC50 values were calculated by sigmoidal dose-response curve fitting.

Assay [2] has as its system ATCC CRL-1739 (KRASG^12D mutant) cells. Nature of the assay: Tumor cell proliferation inhibition experiment (Cell Titer-Glo, 72 hours). Type of assay: cell-based. The conditions noted are these: 72 hours incubation, 10% fetal bovine serum, ATP content. As to the method:
The ATCC CRL-1739 (KRASG^12D mutant) cells were digested, centrifuged and resuspended, and the cell density was measured with a Scepter automatic cell counter. The cells were diluted to a solution containing 44,000 cells per milliliter, and the density-adjusted cell solution was 90 per well. Microliters were added to a 96-well culture plate. The 96-well plate was placed in a 37° C., 5% CO2 incubator. After the cells were cultured for 24 hours, different concentrations of the compounds to be tested were added. The cells were incubated with the compounds for 72 hours in the presence of 10% fetal bovine serum. Glo Luminescent Cell Viability Assay Kit (see manufacturer's instructions for details) was used to measure ATP content to assess cell growth inhibition. Briefly, 30 μl of Cell Titer-Glo reagent was added to each well, and the plate was shaken for 10 minutes to induce cell lysis. FluoroskanAscentFL (Thermo) assay records the […], and the maximum signal value is obtained from cells treated with DMSO for 72 hours. The minimum signal value was obtained from the medium alone (the number of cells was zero), and the % inhibition rate=(the maximum signal value compound signal value)/(the maximum signal value−the minimum signal value×100%, and the data were processed using Graphpadprism 5 software. By sigmoid Dose-response curve fitting to calculate IC50 value. “A” means IC50≤50 nM; “B” means 50<IC50≤500 nM; “C” means 500<IC50≤2000 nM; “D” means 2000<IC50

Chain of KRAS-G2D/SOS1 (P01116 1-188 isoform P01116-2 G12D): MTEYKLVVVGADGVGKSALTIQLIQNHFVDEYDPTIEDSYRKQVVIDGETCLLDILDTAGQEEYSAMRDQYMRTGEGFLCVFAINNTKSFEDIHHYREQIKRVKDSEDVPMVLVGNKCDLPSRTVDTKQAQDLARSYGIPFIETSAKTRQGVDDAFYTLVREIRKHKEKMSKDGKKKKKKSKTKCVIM

For the compound `C[C@@H]1CNCCN1c1nc(NCCN(C)C)nc2nc(-c3c(O)cccc3F)c(F)cc12` [Compound 1, 2-(2-((2-(dimethylamino)ethyl)amino)-6-fluoro-4-((R)-2-methylpiperazin-1-yl)pyrido[2,3-d]pyrimidin-7-yl)-3-fluorophenol], the IC50 in assay [1] was greater than 500 nM; in assay [2] it was greater than 2000 nM.
As for `C[C@@H]1CNCCN1c1nc(OC[C@@H]2CCCN2C)nc2nc(-c3c(O)cccc3F)c(F)cc12` [Compound 7, 3-fluoro-2-(6-fluoro-4-((R)-2-methylpiperazin-1-yl)-2-(((S)-1-methylpyrrolidin-2-yl)methoxy)pyrido [2,3-d]pyrimidin-7-yl)phenol], the values for the IC50 in assay [1] and in assay [2] were greater than 500 nM and greater than 2000 nM, respectively.
In the same order, the values of `C[C@@H]1CNCCN1c1nc(OC[C@@H]2CCCN2C)nc2nc(-c3cccc4cccc(F)c34)c(F)cc12` [Compound 33, 6-fluoro-7-(8-fluoronaphthalen-1-y1)-4-((R)-2-methylpiperazin-1-y1)-2-(((S)-1-methylpyrrolidin-2-yl)methoxy)pyrido [2,3-d]pyrimidine] are 50 to 500 nM and 50 to 500 nM.
Take `C[C@@H]1CNCCN1c1nc(OC[C@@H]2CCCN2C)nc2nc(-c3cccc4cccc(Cl)c34)c(F)cc12` [Compound 34, 7-(8-chloronaphthalen-1-yl)-6-fluoro-4-((R)-2-methylpiperazin-1-yl)-2-(((S)-1-methylpyrrolidin-2-yl)methoxy)pyrido [2,3-d]pyrimidine]: the IC50 in assay [1] fell in the range of 50 to 500 nM; in assay [2], 500 to 2000 nM.
On to `C[C@@H]1CNCCN1c1nc(OC[C@@H]2CCCN2C)nc2nc(-c3cc(O)cc4ccccc34)c(F)cc12` [Compound 36, 4-(6-fluoro-4-((R)-2-methylpiperazin-1-yl)-2-(((S)-1-methylpyrrolidin-2-yl)methoxy)pyrido [2,3-d]pyrimidin-7-yl)naphthalen-2-ol], for which the results for the IC50 in assay [1] and in assay [2] were no more than 50 nM and greater than 2000 nM, respectively.
Regarding `C[C@@H]1CNCCN1c1nc(OC[C@@H]2CCCN2C)nc2nc(-c3cc(O)cc4cccc(Cl)c34)c(F)cc12` [Compound 45, 5-chloro-4-(6-fluoro-4-((R)-2-methylpiperazin-1-yl)-2-(((S)-1-methylpyrrolidin-2-yl)methoxy)pyrido [2,3-d]pyrimidin-7-yl)naphthalen-2-ol], the results for the concentration for half-maximal inhibition (IC50) in assay [1] and in assay [2] were no more than 50 nM and 50 to 500 nM, respectively.
In the same order, the values of `C[C@@H]1CNCCN1c1nc(OC[C@@H]2CCCN2C)nc2nc(-c3cc(O)cc4cccc(F)c34)c(F)cc12` [Compound 46, 5-fluoro-4-(6-fluoro-4-((R)-2-methylpiperazin-1-yl)-2-(((S)-1-methylpyrrolidin-2-yl)methoxy)pyrido [2,3-d]pyrimidin-7-yl)naphthalen-2-ol] are no more than 50 nM and no more than 50 nM.
Turning to `CN1CCC[C@H]1COc1nc(N2C3CNCC2C3)c2cc(F)c(-c3cc(O)cc4cccc(Cl)c34)nc2n1` [Compound 47, 4-(4-(3,6-diazabicyclo[3.1.1]heptan-6-yl)-6-fluoro-2-(((S)-1-methylpyrrolidin-2-yl)methoxy)pyrido [2,3-d]pyrimidin-7-yl)-5-chloronaphthalen-2-ol], the IC50 in assay [2] fell in the range of 50 to 500 nM.
For `CN1CCC[C@H]1COc1nc(N2C3CNCC2C3)c2cc(F)c(-c3cc(O)cc4cccc(F)c34)nc2n1` [Compound 48, 4-(4-(3,6-diazabicyclo[3.1.1]heptan-6-yl)-6-fluoro-2-(((S)-1-methylpyrrolidin-2-yl)methoxy)pyrido [2,3-d]pyrimidin-7-yl)-5-fluoronaphthalen-2-ol], in assay [2], the IC50 is no more than 50 nM.
As to `CN1C[C@H](F)C[C@H]1COc1nc(N2C3CNCC2C3)c2cc(F)c(-c3cc(O)cc4cccc(F)c34)nc2n1` [Compound 49, 4-(4-(3,6-diazabicyclo[3.1.1]heptan-6-yl)-6-fluoro-2-(((2S,4R)-4-fluoro-1-methylpyrrolidin-2-yl)methoxy)pyrido [2,3-d]pyrimidin-7-y1)-5-fluoronaphthalen-2-ol], in assay [2], the IC50 lay within 500 to 2000 nM.
As for `Oc1cc(-c2nc3nc(OC[C@@H]4C[C@@H](F)CN4C4CC4)nc(N4C5CNCC4C5)c3cc2F)c2c(F)cccc2c1` [Compound 50, 4-(4-(3,6-diazabicyclo[3.1.1]heptan-6-yl)-2-(((2S,4R)-1-cyclopropyl-4-fluoropyrrolidin-2-yl)methoxy)-6-fluoropyrido[2,3-d]pyrimidin-7-yl)-5-fluoronaphthalen-2-ol], the IC50 in assay [2] lay in the range of 500 to 2000 nM.
Compound `Oc1cc(-c2nc3nc(OCC4(CN5CCCC5)CC4)nc(N4C5CNCC4C5)c3cc2F)c2c(F)cccc2c1` [Compound 51, 4-(4-(3,6-diazabicyclo[3.1.1]heptan-6-yl)-6-fluoro-2-((1-(pyrrolidin-1-ylmethyl)cyclopropyl)methoxy)pyrido[2,3-d]pyrimidin-7-yl)-5-fluoronaphthalen-2-ol] registered an IC50 in assay [2] of 50 to 500 nM.
Same read-out and setting: in the case of `Oc1cc(-c2nc3nc(OCC4(CN5CC[C@@H](F)C5)CC4)nc(N4C5CNCC4C5)c3cc2F)c2c(F)cccc2c1` [Compound 52, 4-(4-(3,6-diazabicyclo[3.1.1]heptan-6-yl)-6-fluoro-2-((1-(((R)-3-fluoropyrrolidin-1-yl)methyl)cyclopropyl)methoxy)pyrido[2,3-d]pyrimidin-7-yl)-5-fluoronaphthalen-2-ol] it was 50 to 500 nM.
On the same count and under the same terms, in the case of `Oc1cc(-c2nc3nc(OC[C@@]45CCCN4C[C@H](F)C5)nc(N4C5CNCC4C5)c3cc2F)c2c(Cl)cccc2c1` [Compound 53, 4-(4-(3,6-diazabicyclo[3.1.1]heptan-6-yl)-6-fluoro-2-(((2R,7aS)-2-fluorohexahydro-1H-pyrrolizin-7a-yl)methoxy)pyrido[2,3-d]pyrimidin-7-yl)-5-chloronaphthalen-2-ol] it was no more than 50 nM.
As for `Oc1cc(-c2nc3nc(OC[C@@]45CCCN4C[C@H](F)C5)nc(N4C5CNCC4C5)c3cc2F)c2c(F)cccc2c1` [Compound 54, 4-(4-(3,6-diazabicyclo [3.1.1]heptan-6-y1)-6-fluoro-2-(((2R,7aS)-2-fluorohexahydro-1H-pyrrolizin-7a-yl)methoxy)pyrido[2,3-d]pyrimidin-7-y1)-5-fluoronaphthalen-2-ol], the concentration for half-maximal inhibition (IC50) in assay [1] and in assay [2] was no more than 50 nM each time.
The compound `Oc1cc(-c2nc3nc(OC[C@@]45CCCN4C[C@H](F)C5)nc(N4C[C@H]5CC[C@@H](C4)N5)c3cc2F)c2c(Cl)cccc2c1` [Compound 55, 4-(4-((1R,5S)-3,8-diazabicyclo [3.2.1]octan-3-yl)-6-fluoro-2-(((2R,7aS)-2-fluorohexahydro-1H-pyrrolizin-7a-yl)methoxy)pyrido[2,3-d]pyrimidin-7-yl)-5-chloronaphthalen-2-ol] came in with an IC50 in assay [2] of no more than 50 nM.
In assay [2], `Oc1cc(-c2nc3nc(OC[C@@]45CCCN4CC(F)C5)nc(N4CC5CCC(C4)N5)c3cc2F)c2c(F)cccc2c1` (stereo partly drawn) [Compound 56, 4-(4-((1R,5S)-3,8-diazabicyclo [3.2.1]octan-3-yl)-6-fluoro-2-(((2R,7aS)-2-fluorohexahydro-1H-pyrrolizin-7a-yl)methoxy)pyrido[2,3-d]pyrimidin-7-y1)-5-fluoronaphthalen-2-ol] had an IC50 of no more than 50 nM.
Regarding `Oc1cc(-c2nc3nc(OC[C@@]45CCCN4C[C@H](F)C5)cc(N4C[C@H]5CC[C@@H](C4)N5)c3cc2F)c2c(F)cccc2c1` [Compound 57, 4-(5-((1R,5S)-3,8-diazabicyclo[3.2.1]octan-3-yl)-3-fluoro-7-(((2R,7aS)-2-fluorohexahydro-1H-pyrrolizin-7a-yl)methoxy)-1,8-naphthyridin-2-yl)-5-fluoronaphthalen-2-ol], the IC50 in assay [1] and in assay [2] was no more than 50 nM in each case.
For the compound `CCc1c(F)ccc2cc(O)cc(-c3nc4nc(OC[C@@]56CCCN5C[C@H](F)C6)nc(N5C[C@H]6CC[C@@H](C5)N6)c4cc3F)c12` [Compound 59, 4-(4-((1R,5S)-3,8-diazabicyclo[3.2.1]octan-3-yl)-6-fluoro-2-(((2R,7aS)-2-fluorotetrahydro-1H-pyrrolizin-7a(5H)-yl)methoxy)pyrido[2,3-d]pyrimidin-7-yl)-5-ethyl-6-fluoronaphthalen-2-ol], the IC50 in assay [2] is no more than 50 nM.
